38 compounds from ChEMBL document CHEMBL4000197, “Design, synthesis, biological evaluation, and molecular docking of chalcone derivatives as anti-inflammatory agents” (Bioorg Med Chem Lett, 2017) can be followed below.

Data set [1] deals with Mus musculus. The data set is described as follows: Anti-inflammatory activity in para-xylene-induced Kunming mouse ear-swelling model assessed as inhibition of ear swelling at 40 mg/kg, ig measured after 1 hr relative to control. Type of data set: functional. Particulars: po.
Data set [2] concerns Mus musculus. Nature of the data set: Anti-inflammatory activity in para-xylene-induced Kunming mouse ear-swelling model assessed as inhibition of ear swelling at 5 mg/kg, ig measured after 1 hr relative to control. Type of data set: functional. Particulars: po.
Data set [3] deals with RAW264.7. Nature of the data set: Cytotoxicity against mouse RAW264.7 cells at < 50 uM by MTT assay. In kind it is cell-based. For orientation: Tetrazolium dyes change colour on reduction, which living cells bring about.
In data set [4] the test system is RAW264.7. Nature of the data set: Anti-inflammatory activity in mouse RAW264.7 cells assessed as inhibition of LPS-induced TNF-alpha production pretreated for 2 hrs followed by LPS challenge measured after 22 hrs by ELISA. In kind it is functional, cell-based.
Data set [5] relates to RAW264.7. Nature of the data set: Anti-inflammatory activity in mouse RAW264.7 cells assessed as inhibition of LPS-induced IL-6 production pretreated for 2 hrs followed by LPS challenge measured after 22 hrs by ELISA. Type of data set: functional, cell-based. (In an ELISA, binding on a coated surface is turned into a signal by an enzyme label.)
For data set [6], the system named is Mus musculus. The data set is described as follows: Anti-inflammatory activity in para-xylene-induced Kunming mouse ear-swelling model assessed as inhibition of ear swelling at 100 mg/kg, ig measured after 1 hr relative to control. In kind it is functional. Particulars: po.

Each structure is given as a SMILES string.

Consider `COc1cccc(N2CCN(c3ccc(C(=O)/C=C/c4ccc(Cl)cc4)cc3)CC2)c1`, for which the inhibition in vivo (commonly the change of the read-out against control, counted positive when it falls) at 40 mg/kg in data set [1] was determined as 2.28%. Same read-out and setting: with `Cc1ccc(S(=O)(=O)N2CCN(c3ccc(C(=O)/C=C/c4ccccc4)cc3)CC2)cc1` the figure was 30.8%; with `COc1ccc(/C=C/C(=O)c2ccc(N3CCN(c4ccc(Cl)c(Cl)c4)CC3)cc2)cc1OC`, 63.5%; with `O=C(/C=C/c1ccccc1)c1ccc(N2CCN(c3ccc([N+](=O)[O-])cc3)CC2)cc1`, 55.4%. Same read-out and setting: with `O=C(/C=C/c1ccc(Cl)cc1)c1ccc(N2CCN(S(=O)(=O)c3ccc(Cl)cc3)CC2)cc1` the figure was 56.6%. For `COc1cccc(N2CCN(c3ccc(C(=O)/C=C/c4ccccc4)cc3)CC2)c1`, in data set [1], the inhibition in vivo at 40 mg/kg is 16%. `Cc1ccc(-c2cc(C(F)(F)F)nn2-c2ccc(S(N)(=O)=O)cc2)cc1` [CELECOXIB]: in data set [2], the inhibition in vivo at 5 mg/kg was 77%.

`O=C(/C=C/c1ccccc1)c1ccc(N2CCN(S(=O)(=O)c3ccc(Br)cc3)CC2)cc1`: the inhibition in vivo at 40 mg/kg in data set [1] is 47.4%. The same measure, in the same setting: as for `CCCCc1ccc(S(=O)(=O)N2CCN(c3ccc(C(=O)/C=C/c4ccccc4)cc3)CC2)cc1`, the figure is 24%; as for `O=C(/C=C/c1ccccc1)c1ccc(N2CCN(S(=O)(=O)c3ccc(C(F)(F)F)cc3)CC2)cc1`, 47.9%. For `O=C(/C=C/c1ccc(Cl)cc1)c1ccc(N2CCN(c3cccc(Cl)c3)CC2)cc1`, in data set [1], the inhibition in vivo at 40 mg/kg amounted to 5.85%. `COc1ccc(/C=C/C(=O)c2ccc(N3CCN(S(=O)(=O)c4ccc(Br)cc4)CC3)cc2)cc1OC`: the Activity result in data set [3] is on record as “Non-Toxic”. For the same compound, the inhibition entry in data set [4] and in data set [5] was “Dose-dependent effect” each time. For the same compound, the inhibition in vivo at 40 mg/kg in data set [1] worked out at 75.5%.

For the compound `O=C(/C=C/c1ccccc1)c1ccc(N2CCN(c3cccc(Cl)c3)CC2)cc1`, the inhibition in vivo at 40 mg/kg in data set [1] turned out to be 14.1%. `Cc1ccc(N2CCN(c3ccc(C(=O)/C=C/c4ccccc4)cc3)CC2)cc1`: in data set [1], the inhibition in vivo at 40 mg/kg worked out at 2.85%.

Take `O=C(/C=C/c1ccccc1)c1ccc(N2CCN(S(=O)(=O)c3ccc(Cl)cc3)CC2)cc1`: the inhibition in vivo at 40 mg/kg in data set [1] came out at 46.8%. On the same count and under the same terms, as for `O=C(/C=C/c1ccccc1)c1ccc(N2CCN(c3ccc(Cl)c(Cl)c3)CC2)cc1`, the figure is 13.4%; as for `Cc1ccc(N2CCN(c3ccc(C(=O)/C=C/c4ccc(Cl)cc4)cc3)CC2)c(C)c1`, 25.7%; as for `O=C(/C=C/c1ccccc1)c1ccc(N2CCN(c3ccccc3)CC2)cc1`, 3.71%. The same measure, in the same setting: as for `O=C(/C=C/c1ccccc1)c1ccc(N2CCN(c3cccc(Cl)c3Cl)CC2)cc1`, the figure is 30.7%. As to `CC(=O)Oc1ccccc1C(=O)O` [ASPIRIN], in data set [6], the inhibition in vivo at 100 mg/kg amounted to 64.9%. With `COc1ccc(S(=O)(=O)N2CCN(c3ccc(C(=O)/C=C/c4ccccc4)cc3)CC2)cc1OC`, in data set [1], the inhibition in vivo at 40 mg/kg is 55.5%. Same read-out and setting: with `O=C(/C=C/c1ccc(Cl)cc1)c1ccc(N2CCN(S(=O)(=O)c3ccc(C(F)(F)F)cc3)CC2)cc1` the figure was 59.6%; with `O=C(/C=C/c1ccccc1)c1ccc(N2CCN(c3ccccc3F)CC2)cc1`, 0.57%. For `COc1ccc(/C=C/C(=O)c2ccc(N3CCN(c4ccc(C)cc4C)CC3)cc2)cc1OC`, in data set [1], the inhibition in vivo at 40 mg/kg came to 48.5%.

`O=C(/C=C/c1ccccc1)c1ccc(N2CCN(c3ccccc3Cl)CC2)cc1`: the inhibition in vivo at 40 mg/kg in data set [1] stood at 4.71%. With `COc1ccc(S(=O)(=O)N2CCN(c3ccc(C(=O)/C=C/c4ccc(OC)c(OC)c4)cc3)CC2)cc1`, the inhibition in vivo at 40 mg/kg in data set [1] came to 64%. The same measure, in the same setting: as for `Cc1ccc(N2CCN(c3ccc(C(=O)/C=C/c4ccccc4)cc3)CC2)c(C)c1`, the figure is 15%; as for `COc1ccccc1N1CCN(c2ccc(C(=O)/C=C/c3ccc(Cl)cc3)cc2)CC1`, 6.13%. Same read-out and setting: with `O=C(/C=C/c1ccccc1)c1ccc(N2CCN(c3cccc(C(F)(F)F)c3)CC2)cc1` the figure was 25%; with `O=C(/C=C/c1ccccc1)c1ccc(N2CCN(S(=O)(=O)c3ccc(OC(F)(F)F)cc3)CC2)cc1`, 47.4%. Same read-out and setting: with `COc1ccc(S(=O)(=O)N2CCN(c3ccc(C(=O)/C=C/c4ccccc4)cc3)CC2)cc1` the figure was 45.2%; with `CC(C)c1cc(C(C)C)c(S(=O)(=O)N2CCN(c3ccc(C(=O)/C=C/c4ccccc4)cc3)CC2)c(C(C)C)c1`, 60.1%.

For `O=C(/C=C/c1ccccc1)c1ccc(N2CCN(S(=O)(=O)c3ccccc3)CC2)cc1`, the inhibition in vivo at 40 mg/kg in data set [1] turned out to be 30%. Same read-out and setting: as for `COc1ccc(N2CCN(c3ccc(C(=O)/C=C/c4ccc(Cl)cc4)cc3)CC2)cc1`, the figure is 55.1%; as for `O=C(/C=C/c1ccccc1)c1ccc(N2CCN(Cc3ccccc3)CC2)cc1`, 17.7%; as for `O=C(/C=C/c1ccccc1)c1ccccc1` [CHALCONE], 21.7%.

On to `Cc1cc(C)c(S(=O)(=O)N2CCN(c3ccc(C(=O)/C=C/c4ccccc4)cc3)CC2)c(C)c1`, for which, in data set [1], the inhibition in vivo at 40 mg/kg was determined as 55.5%. The same measure, in the same setting: as for `O=C(/C=C/c1ccccc1)c1ccc(N2CCN(S(=O)(=O)c3ccc4ccccc4c3)CC2)cc1`, the figure is 35%.
